Measurements published in patent US20240358727A1, “MICROSCALE THERMOPHORESIS TO EVALUATE CHANNEL LIPID INTERACTIONS AND METHODS OF TREATING NAV CHANNELS RELATED DISEASES” (Northeastern University, priority 2023, published 2024).

Target: T1, Nav1.5 WT (Homo sapiens, UniProt Q14524)
T1 construct: expressed in transfected cells; host or cells: HEK293T cells, lysed; unpurified lysate supernatant used
Experiment: Microscale thermophoresis (MST) binding of diC8-PIP2 to GFP-tagged wild type Nav1.5 in cell lysate
Method: The method utilizes cell lysates obtained from transfected/infected cells that are lysed and incubated with varying concentrations of a water-soluble analogue of PIP2 commercially available as diC8-PI(4,5)P2, in a 384 well plate. Other phosphoinositides such as diC8PI(4)P of diC8PI(5)P can also be utilized. After a brief incubation (10-30 mins) samples are loaded onto capillary chips purchased from the company Nanotemper. Samples are run on the Nanotemper Monolith instrument. This instrument is advertised to detect green fluorescent protein (GFP) tagged proteins, however we have also used TFP (teal FP) tagged proteins. The instrument provides a short infra-red laser pulse which produces a short thermal gradient. Protein that is interacting with the lipid migrates differently through this thermal gradient and its movement is evaluated by the fluorescence of the GFP/TFP tag on the protein. Based on the concentration of the dic8-phosphoinositide, this resolves into a sigmoidal relationship that delivers an apparent affinity (Kd) value. A test ligand can be added to this assay at a known concentration that is at or close to its Kd for the channel. A shift in the channel's affinity for PIP2 in this assay can help indicate whether this test compound is a good drug candidate for further biological experiments.
Results. […]

T1 sequence (Q14524 whole entry): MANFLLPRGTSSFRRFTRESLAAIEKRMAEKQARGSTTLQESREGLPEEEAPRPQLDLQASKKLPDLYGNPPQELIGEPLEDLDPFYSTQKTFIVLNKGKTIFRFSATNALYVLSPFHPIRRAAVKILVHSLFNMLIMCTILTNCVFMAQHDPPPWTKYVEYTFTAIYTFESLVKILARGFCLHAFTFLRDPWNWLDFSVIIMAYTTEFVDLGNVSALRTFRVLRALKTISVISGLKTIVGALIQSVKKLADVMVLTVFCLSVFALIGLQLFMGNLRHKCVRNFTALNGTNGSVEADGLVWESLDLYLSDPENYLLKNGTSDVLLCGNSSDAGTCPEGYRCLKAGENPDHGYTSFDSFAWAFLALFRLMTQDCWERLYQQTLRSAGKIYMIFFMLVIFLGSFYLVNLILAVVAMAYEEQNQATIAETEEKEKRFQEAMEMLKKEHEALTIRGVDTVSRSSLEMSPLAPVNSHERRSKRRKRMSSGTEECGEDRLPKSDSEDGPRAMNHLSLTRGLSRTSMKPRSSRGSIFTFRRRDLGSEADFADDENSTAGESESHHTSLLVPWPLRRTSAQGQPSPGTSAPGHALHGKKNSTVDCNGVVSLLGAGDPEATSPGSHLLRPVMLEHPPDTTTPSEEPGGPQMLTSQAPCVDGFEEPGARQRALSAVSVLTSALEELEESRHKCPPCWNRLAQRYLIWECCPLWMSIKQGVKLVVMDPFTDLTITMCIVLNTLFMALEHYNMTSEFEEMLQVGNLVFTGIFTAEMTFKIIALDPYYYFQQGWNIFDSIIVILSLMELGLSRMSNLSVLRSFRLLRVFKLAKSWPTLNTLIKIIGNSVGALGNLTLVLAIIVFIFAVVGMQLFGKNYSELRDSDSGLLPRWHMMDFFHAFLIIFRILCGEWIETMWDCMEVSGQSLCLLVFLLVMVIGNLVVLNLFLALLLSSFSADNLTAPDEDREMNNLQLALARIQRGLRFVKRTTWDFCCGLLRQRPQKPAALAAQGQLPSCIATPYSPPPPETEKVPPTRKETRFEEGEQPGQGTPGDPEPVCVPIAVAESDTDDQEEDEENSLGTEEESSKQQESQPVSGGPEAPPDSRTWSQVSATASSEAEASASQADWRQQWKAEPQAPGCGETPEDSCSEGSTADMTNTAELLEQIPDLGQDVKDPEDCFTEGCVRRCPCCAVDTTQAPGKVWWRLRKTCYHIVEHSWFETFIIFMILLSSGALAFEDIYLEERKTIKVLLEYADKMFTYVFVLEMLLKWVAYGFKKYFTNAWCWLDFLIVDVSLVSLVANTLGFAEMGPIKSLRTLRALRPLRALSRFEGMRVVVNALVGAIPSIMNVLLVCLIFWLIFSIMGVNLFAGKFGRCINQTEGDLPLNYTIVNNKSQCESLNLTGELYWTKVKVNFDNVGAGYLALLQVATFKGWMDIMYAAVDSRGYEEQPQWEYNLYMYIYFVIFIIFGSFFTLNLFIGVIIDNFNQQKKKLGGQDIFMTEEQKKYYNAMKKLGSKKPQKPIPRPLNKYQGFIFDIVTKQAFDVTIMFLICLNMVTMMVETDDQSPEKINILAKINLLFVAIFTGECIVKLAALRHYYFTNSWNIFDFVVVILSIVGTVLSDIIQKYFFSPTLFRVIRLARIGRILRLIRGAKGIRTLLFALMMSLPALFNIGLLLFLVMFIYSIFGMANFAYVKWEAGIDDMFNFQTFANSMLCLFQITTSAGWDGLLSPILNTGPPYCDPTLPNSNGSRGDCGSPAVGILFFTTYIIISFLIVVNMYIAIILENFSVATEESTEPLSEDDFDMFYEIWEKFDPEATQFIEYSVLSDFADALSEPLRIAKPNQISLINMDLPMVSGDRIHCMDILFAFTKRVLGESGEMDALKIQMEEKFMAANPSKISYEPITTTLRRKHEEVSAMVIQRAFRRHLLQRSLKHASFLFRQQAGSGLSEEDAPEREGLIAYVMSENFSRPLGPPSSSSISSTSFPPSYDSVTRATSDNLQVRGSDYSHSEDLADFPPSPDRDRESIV

CCCCCCCC(=O)OC[C@H](COP(=O)(O)O[C@@H]1[C@H](O)[C@H](O)[C@@H](OP(=O)(O)O)[C@H](OP(=O)(O)O)[C@H]1O)OC(=O)CCCCCCC [diC8-PIP2]
Kd: 45 ± 10 nM
